Source: ChEMBL document CHEMBL3875162, “Synthesis and biological evaluation of new benzimidazole-thiazolidinedione hybrids as potential cytotoxic and apoptosis inducing agents” (Eur J Med Chem, 2016)
The source made the active and inactive calls. The rule behind the calls is not given here.

What was measured:
[1] = Cytotoxicity against human MCF10A cells assessed as cell growth inhibition after 48 hrs by MTT assay; assay type: toxicity, cell-based, MCF-10A
A549 [2] = assay: Inhibition of F-actin polymerization in human A549 cells assessed as disruption of actin fibre assembly after 24 hrs by rhodamine-phalloidin/[…]-dual staining based fluorescent microscopic method; assay type: cell-based
A549 [3] = assay: Induction of mitochondrial membrane potential loss in human A549 cells at 10 uM after 24 hrs by rhodamine-123 staining based flow cytometry relative to control; assay type: functional
A549 [4] = assay: Induction of apoptosis in human A549 cells assessed as early apoptotic cells at 5 uM after 24 hrs by Annexin V-FITC/propidium iodide staining based flow cytometry (reference value: 2.6%); assay type: functional
[5] = Antimigratory activity in human A549 cells assessed as cell migration at 5 uM after 24 hrs by phase contrast microscopy-based wound healing assay relative to control; assay type: functional
[6] = Antimigratory activity in human A549 cells assessed as cell migration at 15 uM after 24 hrs by phase contrast microscopy-based wound healing assay relative to control; assay type: functional
[7] = Antimigratory activity in human A549 cells assessed as cell migration at 15 uM after 48 hrs by phase contrast microscopy-based wound healing assay relative to control; assay type: functional
[8] = Cell cycle arrest in human A549 cells assessed as decrease in cell levels at G0/G1 phase after 24 hrs by propidium iodide staining-based flow cytometry; assay type: functional
A549 [9] = assay: Induction of apoptosis in human A549 cells assessed as appearance of horse-shoe shaped nucleus at 5 to 15 uM after 24 hrs by DAPI staining based fluorescence microscopic method; assay type: functional, cell-based
A549 [10] = assay: Induction of apoptosis in human A549 cells assessed as early apoptotic cells at 10 uM after 24 hrs by Annexin V-FITC/propidium iodide staining based flow cytometry (reference value: 2.6%); assay type: functional
A549 [11] = assay: Induction of apoptosis in human A549 cells assessed as late apoptotic cells at 10 uM after 24 hrs by Annexin V-FITC/propidium iodide staining based flow cytometry (reference value: 0.8%); assay type: functional
A549 [12] = assay: Induction of apoptosis in human A549 cells assessed as necrotic cells at 15 uM after 24 hrs by Annexin V-FITC/propidium iodide staining based flow cytometry (reference value: 2.3%); assay type: functional
A549 [13] = assay: Antimigratory activity in human A549 cells after 24 hrs by phase contrast microscopy-based wound healing assay; assay type: functional, cell-based

## Cn1c(/C=C2\SC(=O)N(CC(=O)Nc3nc(-c4ccccc4)cs3)C2=O)nc2ccccc21
[1]
  IC50 at 48 h: > 100 µM
A549 [2]
  inhibition: Dose-dependent effect
A549 [3]
  Activity: 30.6%
A549 [4]
  Activity: 12.8%
[5]
  Activity: 77.8%
[6]
  Activity: 60.4%
[7]
  Activity: 29.6%
[8]
  Activity: Dose-dependent effect
A549 [9]
  Activity: Active
A549 [10]
  Activity: 15.8%
A549 [11]
  Activity: 7.9%
A549 [12]
  Activity: 2.5%
A549 [13]
  Activity: Dose-dependent effect
